Source: patent US12134610B2, “Somatostatin subtype-2 receptor (SST2R) targeted therapeutics and uses thereof” (priority 2022, dated 2024)

Experiments:
Format in all cases: cell-based
[1] = system: NCI-H524 (ATCC) human small cell lung cancer cells; settings: 2 h
Method in brief: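 NCI-H524 cells (5,000/well) were exposed 24 h after plating to SMDC for 2 h, 11-point two-fold series from 1 uM. After washout they grew a further 70 h. Proliferation was read by CellTiter-Glo luminescence, % inhibition taken vs untreated control, and IC50 fitted by four-parameter nonlinear regression.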

[2] = target: T1, human somatostatin receptor subtype 2 (Homo sapiens, UniProt P30874); assay: Functional cAMP assay for SSTR2 agonists (HTRF) in CHO-K1 cells; settings: CHO-K1 cells stably expressing human SST2, 20 min; read-out: hSST2 cAMP Avg EC50
T1 construct: expressed in transfected cells
Method in brief: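 CHO-K1 cells stably expressing receptor, plated 4 days before assay, treated 20 min at 37° C. with compound (typically 0-10,000 nM final) plus IBMX and 1.6 μM NKH477 to raise cAMP. HTRF read, 665/620 nm ratio; cAMP from standard curve, EC50 fitted.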

SST2 = target: T2, SST2 (Homo sapiens, UniProt P30874); assay: PathHunter CHO-K1 SST2 internalization assay; settings: PathHunter CHO-K1 SST2, 90 min; read-out: Internalization EC50
T2 construct: host or cells: PathHunter CHO-K1 SST2 cells
Method in brief: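 PathHunter CHO-K1 SST2 cells, seeded and grown 48 h, were exposed to 11-point 1:3 dilutions of SMDC (top final 10 uM) for 90 min at 37 C, 5% CO2. Beta-Glo luminescence was read after 60 min at room temperature. Background-corrected duplicate means were fitted by four-parameter nonlinear regression to give IC50.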

T1 sequence (P30874 whole entry): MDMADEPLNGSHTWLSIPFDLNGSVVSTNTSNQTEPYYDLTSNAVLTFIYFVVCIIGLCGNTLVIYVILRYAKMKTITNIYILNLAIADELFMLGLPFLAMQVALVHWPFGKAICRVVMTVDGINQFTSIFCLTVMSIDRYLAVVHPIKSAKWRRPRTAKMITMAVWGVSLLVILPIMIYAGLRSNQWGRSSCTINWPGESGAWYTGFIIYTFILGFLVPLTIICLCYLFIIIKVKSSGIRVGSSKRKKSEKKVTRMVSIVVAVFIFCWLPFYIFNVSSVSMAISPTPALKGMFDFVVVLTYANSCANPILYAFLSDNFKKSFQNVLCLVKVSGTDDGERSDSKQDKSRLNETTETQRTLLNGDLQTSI
T2 sequence (P30874 whole entry): as above

CC[C@H](C)[C@@H]([C@@H](CC(=O)N1CCC[C@H]1[C@H](OC)[C@@H](C)C(=O)N[C@H](C)[C@@H](O)c1ccccc1)OC)N(C)C(=O)[C@@H](NC(=O)[C@H](C(C)C)N(C)C(=O)OCc1ccc(NC(=O)[C@H](C)NC(=O)[C@@H](NC(=O)[C@H](CCC(N)=O)NC(=O)CCOCCC(=O)NCCNc2ncc(-c3cc(C)cc(F)c3)c(N3CCC(N)CC3)c2-c2nc3ccc(Cl)cc3[nH]2)C(C)C)c(O[C@@H]2O[C@H](C(=O)O)[C@@H](O)[C@H](O)[C@H]2O)c1)C(C)C [Compound 146]
EC50 [1]: 4.8 nM | EC50 [2]: 0.072 nM | EC50 (SST2): 2.1 nM

CC[C@H](C)[C@@H]([C@@H](CC(=O)N1CCC[C@H]1[C@H](OC)[C@@H](C)C(=O)N[C@H](C)[C@@H](O)c1ccccc1)OC)N(C)C(=O)[C@@H](NC(=O)[C@H](C(C)C)N(C)C(=O)OCc1ccc(O[C@@H]2O[C@H](C(=O)O)[C@@H](O)[C@H](O)[C@H]2O)c(NC(=O)[C@H](CCCNC(N)=O)NC(=O)[C@@H](NC(=O)CCOCCC(=O)NCCNc2ncc(-c3cc(C)cc(F)c3)c(N3CCC(N)CC3)c2-c2nc3ccc(Cl)cc3[nH]2)C(C)C)c1)C(C)C [Compound 147]
EC50 [1]: 3.2 nM | EC50 [2]: 0.14 nM | EC50 (SST2): 2.5 nM

CC[C@H](C)[C@@H]([C@@H](CC(=O)N1CCC[C@H]1[C@H](OC)[C@@H](C)C(=O)N[C@H](C)[C@@H](O)c1ccccc1)OC)N(C)C(=O)[C@@H](NC(=O)[C@H](C(C)C)N(C)C(=O)OCc1ccc(O[C@@H]2O[C@H](C(=O)O)[C@@H](O)[C@H](O)[C@H]2O)c(NC(=O)[C@H](C)NC(=O)[C@@H](NC(=O)CCOCCC(=O)NCCNc2ncc(-c3cc(C)cc(F)c3)c(N3CCC(N)CC3)c2-c2nc3ccc(Cl)cc3[nH]2)C(C)C)c1)C(C)C [Compound 148]
EC50 [1]: 7.9 nM | EC50 [2]: 0.086 nM | EC50 (SST2): 4.5 nM

CC[C@H](C)[C@@H]([C@@H](CC(=O)N1CCC[C@H]1[C@H](OC)[C@@H](C)C(=O)N[C@H](C)[C@@H](O)c1ccccc1)OC)N(C)C(=O)[C@@H](NC(=O)[C@H](C(C)C)N(C)C(=O)OCc1ccc(NC(=O)[C@H](C)NC(=O)[C@@H](NC(=O)CCOCCOCCC(=O)NCCNc2ncc(-c3cc(C)cc(F)c3)c(N3CCC(N)CC3)c2-c2nc3ccc(Cl)cc3[nH]2)C(C)C)c(O[C@@H]2O[C@H](C(=O)O)[C@@H](O)[C@H](O)[C@H]2O)c1)C(C)C [Compound 149]
EC50 [1]: 5 nM | EC50 [2]: 0.099 nM | EC50 (SST2): 5.2 nM

CC[C@H](C)[C@@H]([C@@H](CC(=O)N1CCC[C@H]1[C@H](OC)[C@@H](C)C(=O)N[C@H](C)[C@@H](O)c1ccccc1)OC)N(C)C(=O)[C@@H](NC(=O)[C@H](C(C)C)N(C)C(=O)OCc1ccc(NC(=O)[C@H](C)NC(=O)[C@@H](NC(=O)CCOCCOCCOCCOCCC(=O)NCCNc2ncc(-c3cc(C)cc(F)c3)c(N3CCC(N)CC3)c2-c2nc3ccc(Cl)cc3[nH]2)C(C)C)c(O[C@@H]2O[C@H](C(=O)O)[C@@H](O)[C@H](O)[C@H]2O)c1)C(C)C [Compound 150]
EC50 [1]: 9.3 nM | EC50 [2]: 0.18 nM | EC50 (SST2): 5.6 nM

CC[C@H](C)[C@@H]([C@@H](CC(=O)N1CCC[C@H]1[C@H](OC)[C@@H](C)C(=O)N[C@H](C)[C@@H](O)c1ccccc1)OC)N(C)C(=O)[C@@H](NC(=O)[C@H](C(C)C)N(C)C(=O)OCc1ccc(NC(=O)[C@H](CCCNC(N)=O)NC(=O)[C@@H](NC(=O)[C@H](CCC(N)=O)NC(=O)CCOCCC(=O)NCCNc2ncc(-c3cc(C)cc(F)c3)c(N3CCC(N)CC3)c2-c2nc3ccc(Cl)cc3[nH]2)C(C)C)c(O[C@@H]2O[C@H](C(=O)O)[C@@H](O)[C@H](O)[C@H]2O)c1)C(C)C [Compound 151]
EC50 [1]: 8.9 nM | EC50 [2]: 0.28 nM | EC50 (SST2): 2.2 nM
